Series [1] deals with Hepatitis B virus. Kind of series: Antiviral activity against adenovirus AdH294-WT harboring wild-type HBV genotype D accession #V01460 infected in human HepG2 cells assessed as reduction in viral replicative intermediate DNA level at 120 nM incubated for 5 days by Southern blot analysis (reference value: 100%). Type of series: functional. More on the design: scale not given: the % may be the effect or the level left. The conditions noted are these: time 5 day.

Series [2] has as its system Hepatitis B virus. As to the kind of experiment: Antiviral activity against adenovirus AdH294-WT harboring wild-type HBV genotype D accession #V01460 infected in human HepG2 cells assessed as reduction in viral replicative intermediate DNA level at 1100 nM incubated for 5 days by Southern blot analysis (reference value: 100%). More on the design: scale not given: the % may be the effect or the level left. Particulars: time 5 day. The class given is functional.

The test system of series [3] is Hepatitis B virus. Kind of series: Antiviral activity against ETV-resistant and adenovirus AdH294-7LR harboring wild-type HBV infected in human HepG2 cells assessed as reduction in viral replicative intermediate DNAs up to 100 uM incubated for 5 days by Southern blot analysis. The class given is functional, organism-based. The conditions noted are these: dose microM <=100, time 5.0 day.

In series [4] the test system is Hepatitis B virus. Kind of series: Antiviral activity against adenovirus AdH294-WT harboring wild-type HBV genotype D accession #V01460 infected in human HepG2 cells assessed as reduction in viral replicative intermediate DNAs at 4 to 1000 nM incubated for 5 days by Southern blot analysis. Type of series: functional, organism-based. Particulars: time 5.0 day.
The test system of series [5] is Hepatitis B virus. Kind of series: Antiviral activity against adenovirus AdH294-WT harboring wild-type HBV genotype D accession #V01460 infected in human HepG2 cells assessed as reduction in viral replicative intermediate DNA level at 40 nM incubated for 5 days by Southern blot analysis (reference value: 100%). Type of series: functional. More on the design: scale not given: the % may be the effect or the level left. Particulars: time 5 day.

Series [6] concerns Hepatitis B virus. Kind of series: Antiviral activity against ETV-resistant and adenovirus AdH294-7LR harboring wild-type HBV infected in human HepG2 cells assessed as viral replicative intermediate DNA level at 10000 nM incubated for 5 days by Southern blot analysis (reference value: 100%). Type of series: functional. The conditions noted are these: time 5 day.
For series [7], the system named is Hepatitis B virus. Kind of series: Antiviral activity against ETV-resistant and adenovirus AdH294-7LR harboring wild-type HBV infected in human HepG2 cells assessed as viral replicative intermediate DNA level at 4 nM incubated for 5 days by Southern blot analysis (reference value: 100%). The class given is functional. The conditions noted are these: time 5 day.

Series [8] concerns Hepatitis B virus. As to the kind of experiment: Antiviral activity against ETV-resistant and adenovirus AdH294-7LR harboring wild-type HBV infected in human HepG2 cells assessed as viral replicative intermediate DNA level at 120 nM incubated for 5 days by Southern blot analysis (reference value: 100%). The class given is functional. The conditions noted are these: time 5 day.

Series [9] concerns Hepatitis B virus. As to the kind of experiment: Antiviral activity against adenovirus AdH294-WT harboring wild-type HBV genotype D accession #V01460 infected in human HepG2 cells assessed as reduction in viral replicative intermediate DNA level at 13 nM incubated for 5 days by Southern blot analysis (reference value: 100%). Type of series: functional. Further details: scale not given: the % may be the effect or the level left. The conditions noted are these: time 5 day.

In series [10] the test system is Hepatitis B virus. As to the kind of experiment: Antiviral activity against ETV-resistant and adenovirus AdH294-7LR harboring wild-type HBV infected in human HepG2 cells assessed as viral replicative intermediate DNA level at 370 nM incubated for 5 days by Southern blot analysis (reference value: 100%). The class given is functional. The conditions noted are these: time 5 day.

Series [11] is described as follows: Toxicity in HBV infected hydrodynamic injection C57BL/6 mouse model assessed as effect on body weight at 0.6 to 60 mg/kg, po QD for 6 days. Type of series: organism-based. Particulars: in vivo, 144 h, dose 0.6-60 mg/kg, time 6 day.
For series [12], the system named is Hepatitis B virus. As to the kind of experiment: Antiviral activity against ETV-resistant and adenovirus AdH294-7LR harboring wild-type HBV infected in human HepG2 cells assessed as viral replicative intermediate DNA level at 13 nM incubated for 5 days by Southern blot analysis (reference value: 100%). Particulars: time 5 day. Type of series: functional.
The subject of series [13] is Hepatitis B virus. Kind of series: Antiviral activity against adenovirus AdH294-WT harboring wild-type HBV genotype D accession #V01460 infected in human HepG2 cells assessed as reduction in viral replicative intermediate DNA level at 370 nM incubated for 5 days by Southern blot analysis (reference value: 100%). More on the design: scale not given: the % may be the effect or the level left. Type of series: functional. Particulars: time 5 day.

Series [14] concerns Hepatitis B virus. Kind of series: Antiviral activity against adenovirus AdH294-WT harboring wild-type HBV genotype D accession #V01460 infected in human HepG2 cells assessed as reduction in viral replicative intermediate DNA level at 3300 nM incubated for 5 days by Southern blot analysis (reference value: 100%). Type of series: functional. More on the design: scale not given: the % may be the effect or the level left. Particulars: time 5 day.

In series [15] the test system is Hepatitis B virus. Kind of series: Antiviral activity against ETV-resistant and adenovirus AdH294-7LR harboring wild-type HBV infected in human HepG2 cells assessed as viral replicative intermediate DNA level at 1100 nM incubated for 5 days by Southern blot analysis (reference value: 100%). Type of series: functional. Particulars: time 5 day.
In series [16] the test system is Hepatitis B virus. Kind of series: Antiviral activity against HBV infected hydrodynamic injection C57BL/6 mouse model assessed as reduction in serum HBV DNA level at 0.6 to 60 mg/kg, po QD for 6 days by qPCR analysis. Type of series: functional, organism-based. The conditions noted are these: dose mg/kg 0.6-60, time 6.0 day. For orientation: Real-time PCR tracks product formation cycle by cycle.

The subject of series [17] is Hepatitis B virus. As to the kind of experiment: Antiviral activity against ETV-resistant and adenovirus AdH294-7LR harboring wild-type HBV infected in human HepG2 cells assessed as viral replicative intermediate DNA level at 3300 nM incubated for 5 days by Southern blot analysis (reference value: 100%). Particulars: time 5 day. Type of series: functional.
Series [18] has as its system Hepatitis B virus. As to the kind of experiment: Antiviral activity against adenovirus AdH294-WT harboring wild-type HBV genotype D accession #V01460 infected in human HepG2 cells assessed as reduction in viral replicative intermediate DNA level at 10000 nM incubated for 5 days by Southern blot analysis (reference value: 100%). The class given is functional. More on the design: scale not given: the % may be the effect or the level left. The conditions noted are these: time 5 day.

Series [19] concerns Hepatitis B virus. Kind of series: Antiviral activity against ETV-resistant and adenovirus AdH294-7LR harboring wild-type HBV infected in human HepG2 cells assessed as viral replicative intermediate DNA level at 40 nM incubated for 5 days by Southern blot analysis (reference value: 100%). Type of series: functional. The conditions noted are these: time 5 day.
The test system of series [20] is Hepatitis B virus. As to the kind of experiment: Antiviral activity against adenovirus AdH294-WT harboring wild-type HBV genotype D accession #V01460 infected in human HepG2 cells assessed as reduction in viral replicative intermediate DNA level at 4 nM incubated for 5 days by Southern blot analysis (reference value: 100%). Type of series: functional. Further details: scale not given: the % may be the effect or the level left. The conditions noted are these: time 5 day.

Series [21] is described as follows: Toxicity in human HepDE19 cells assessed as reduction in beta-actin level incubated for 9 days by qPCR analysis. The class given is cell-based. The conditions noted are these: time 9 day.
For series [22], the system named is Hepatitis B virus. As to the kind of experiment: Antiviral activity against HBV infected in human HepDE19 cells assessed as reduction in HBV cccDNA incubated for 9 days by qPCR analysis. Type of series: functional, organism-based. The conditions noted are these: HepDE19, 216 h.
Series [23] is described as follows: Selectivity index, […] against HBV infected in human HepDE19 cells to CC50 for toxicity in human HepDE19 cells. The class given is cell-based. Particulars: read-out: Ratio CC50/IC50.
Series [24] concerns Hepatitis B virus. Kind of series: Antiviral activity against ETV-resistant and adenovirus AdH294-7LR harboring wild-type HBV infected in human HepG2 cells assessed as reduction in viral replicative intermediate DNAs at 4 to 1000 nM incubated for 5 days by Southern blot analysis. The conditions noted are these: time 5.0 day. Type of series: functional, organism-based.
Series [25] in a line: Plasma concentration in C57BL/6 mouse at 6 mg/kg, po administered as single dose after 0.25 to 24 hrs by LC/MS/MS analysis. Type of series: ADME, organism-based. Particulars: in vivo, time 0.25-24 hrs.

Calls of active or inactive are those of the source. The calls are words filed in the database; no cut-off is given here.

`C=C1[C@H](CO)[C@@H](O)C[C@@H]1n1cnc2c(=O)[nH]c(N)nc21.O` [ENTECAVIR]: the Activity with Hepatitis B virus [1] is on record as 13.8%; in the series with Hepatitis B virus [2], 7%; in the series on Hepatitis B virus [5], 16%; with Hepatitis B virus [6], 37%; in the series on Hepatitis B virus [7] it was 93.9%; with Hepatitis B virus [8], 63.8%. The Activity is recorded as 25.7% in the series with Hepatitis B virus [9]; 60.4% in the series with Hepatitis B virus [10]; “Non-Toxic” in series [11]; 92.2% in the series with Hepatitis B virus [12]; 10.5% with Hepatitis B virus [13]; 4.6% in the series with Hepatitis B virus [14]. Besides, the Activity was 51.2% in the series on Hepatitis B virus [15]; “Dose-dependent effect” in the series on Hepatitis B virus [16]; 35.5% in the series on Hepatitis B virus [17]; 2.9% in the series on Hepatitis B virus [18]; 98.6% with Hepatitis B virus [19]; 46.4% with Hepatitis B virus [20]. Also, the outcome in the series with Hepatitis B virus [3] was inactive. Further, in the series on Hepatitis B virus [4], the outcome was Active.
The term CC50 denotes the concentration that lowers cell viability or growth by half. By IC50 is commonly meant the midpoint of a concentration-inhibition curve. By IC90 is commonly meant the point of the concentration-response curve where the effect stands at 90%. Turning to `CC(C)OC(=O)[C@H](C)N[P@](=O)(CO[C@H](C)Cn1cnc2c(N)ncnc21)Oc1ccccc1` [TENOFOVIR ALAFENAMIDE], the CC50 at 216 h in series [21] was determined as 500 nM. Further, the Activity turned out to be 10.8% with Hepatitis B virus [1]; 1.3% in the series with Hepatitis B virus [2]; 18.1% in the series on Hepatitis B virus [5]; 0% with Hepatitis B virus [6]; 93.7% in the series with Hepatitis B virus [7]; 11.3% with Hepatitis B virus [8]. In addition, the Activity in the series with Hepatitis B virus [9] is reported as 40.7%; in the series on Hepatitis B virus [10], 5%; in series [11] it was “Non-Toxic”; in the series on Hepatitis B virus [12], 38.3%; in the series with Hepatitis B virus [13], 4.2%; with Hepatitis B virus [14], 0%. Besides, the Activity with Hepatitis B virus [15] was 2.6%; in the series on Hepatitis B virus [16] it was “Dose-dependent effect”; in the series with Hepatitis B virus [17] it was 1.2%; in the series with Hepatitis B virus [18], 0%; in the series on Hepatitis B virus [19], 21.4%; with Hepatitis B virus [20] it was 75.6%. Moreover, the IC50 with Hepatitis B virus [22] was determined as 40 nM. In addition, in the series on Hepatitis B virus [22] (time 9 day), the 90% effect concentration (IC90) was above 100 nM. In [23], the selectivity ratio was 13. Further, the result in the series on Hepatitis B virus [24] was Active.
Take `Nc1ncnc2c1ncn2[C@H]1C[C@@H](OCP(=O)(O)O)CO1`: the Cp in series [25] is below 1.01 ng/mL.

The values above are taken from ChEMBL document CHEMBL4665893, “Scalable Synthesis, In Vitro cccDNA Reduction, and In Vivo Antihepatitis B Virus Activity of a Phosphonomethoxydeoxythreosyl Adenine Prodrug” (J Med Chem, 2020).
